Measured values reported in patent US8574563B2 (Bristol-Myers Squibb Company, priority 2006, dated 2013).

Tested on: HCV 1b-377-neo replicon cells
Experiment: HCV replicon assay, HCV 1b-377-neo replicon cells (1b FRET)
Assay type: cell-based, Hepatitis C virus genotype 1b
Conditions: HCV 1b-377-neo replicon cells, HCV 1b genotype; for EC50: Hepatitis C virus, read-out: EC50 range against HCV 1b (Table 2, Range)
Summary of the method: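 FRET-based replicon assay in HCV 1b-377-neo cells, including a comparison line carrying the NS5A Y2065H mutation that confers resistance to a reference compound.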

Structure (SMILES) | EC50 [nM] | EC50 range against HCV 1b (Table 2, Range)
COC(=O)N[C@H](C(=O)N1CCC[C@H]1c1ncc(-c2ccc(-c3ccc(-c4cnc([C@@H]5CCCN5C(=O)[C@@H](NC(=O)OC)[C@H](C)CO)[nH]4)cc3)cc2)[nH]1)C(C)C [Example M107] | 1 to 99 | 
COC(=O)N[C@H](C(=O)N1CCC[C@H]1c1ncc(-c2ccc(-c3ccc(-c4cnc([C@@H]5CCCN5C(=O)[C@@H](N)C(C)C)[nH]4)cc3)cc2)[nH]1)C(C)C [Example M108, methyl ((1S)-2-methyl-1-(((2S)-2-(5-(4′-(2-((2S)-1-L-valyl-2-pyrrolidinyl)-1H-imidazol-5-yl)-4-biphenylyl)-1H-imidazol-2-yl)-1-pyrrolidinyl)carbonyl)propyl)carbamate] | 1 to 99 | 
COC(=O)N[C@@H](CC(=O)OCc1ccccc1)C(=O)N1CCC[C@H]1c1ncc(-c2ccc(-c3ccc(-c4cnc([C@@H]5CCCN5C(=O)[C@@H](NC(=O)OC)C(C)C)[nH]4)cc3)cc2)[nH]1 [Example M109, benzyl (3S)-3-((methoxycarbonyl)amino)-4-((2S)-2-(5-(4′-(2-((2S)-1-(N-(methoxycarbonyl)-L-valyl)-2-pyrrolidinyl)-1H-imidazol-5-yl)-4-biphenylyl)-1H-imidazol-2-yl)-1-pyrrolidinyl)-4-oxobutanoate] | 1 to 99 | 
COC(=O)C[C@H](NC(=O)OC)C(=O)N1CCC[C@H]1c1ncc(-c2ccc(-c3ccc(-c4cnc([C@@H]5CCCN5C(=O)[C@@H](NC(=O)OC)C(C)C)[nH]4)cc3)cc2)[nH]1 [Example M110, methyl (3S)-3-((methoxycarbonyl)amino)-4-((2S)-2-(5-(4′-(2-((2S)-1-(N-(methoxycarbonyl)-L-valyl)-2-pyrrolidinyl)-1H-imidazol-5-yl)-4-biphenylyl)-1H-imidazol-2-yl)-1-pyrrolidinyl)-4-oxobutanoate] | 1 to 99 | 
COC(=O)N[C@@H](CC(=O)O)C(=O)N1CCC[C@H]1c1ncc(-c2ccc(-c3ccc(-c4cnc([C@@H]5CCCN5C(=O)[C@@H](NC(=O)OC)C(C)C)[nH]4)cc3)cc2)[nH]1 [Example M111, (3S)-3-((methoxycarbonyl)amino)-4-((2S)-2-(5-(4′-(2-((2S)-1-(N-(methoxycarbonyl)-L-valyl)-2-pyrrolidinyl)-1H-imidazol-5-yl)-4-biphenylyl)-1H-imidazol-2-yl)-1-pyrrolidinyl)-4-oxobutanoic acid] | 1000 to 10000 | 
COC(=O)N[C@@H](CC(=O)N1CCN(C)CC1)C(=O)N1CCC[C@H]1c1ncc(-c2ccc(-c3ccc(-c4cnc([C@@H]5CCCN5C(=O)[C@@H](NC(=O)OC)C(C)C)[nH]4)cc3)cc2)[nH]1 [Example M112, methyl ((1S)-1-(((2S)-2-(5-(4′-(2-((2S)-1-((2S)-2-((methoxycarbonyl)amino)-4-(4-methyl-1-piperazinyl)-4-oxobutanoyl)-2-pyrrolidinyl)-1H-imidazol-5-yl)-4-biphenylyl)-1H-imidazol-2-yl)-1-pyrrolidinyl)carbonyl)-2-methylpropyl)carbamate] | 1 to 99 | 
COC(=O)N[C@@H](CC(=O)N(C)C)C(=O)N1CCC[C@H]1c1ncc(-c2ccc(-c3ccc(-c4cnc([C@@H]5CCCN5C(=O)[C@@H](NC(=O)OC)C(C)C)[nH]4)cc3)cc2)[nH]1 [Example M113, methyl ((1S)-3-(dimethylamino)-1-(((2S)-2-(5-(4′-(2-((2S)-1-((2S)-2-((methoxycarbonyl)amino)-3-methylbutanoyl)-2-pyrrolidinyl)-1H-imidazol-5-yl)-4-biphenylyl)-1H-imidazol-2-yl)-1-pyrrolidinyl)carbonyl)-3-oxopropyl)carbamate] | 1 to 99 | 
COC(=O)N[C@H](C(=O)N1CCC[C@H]1c1ncc(-c2ccc(-c3ccc(-c4cnc([C@@H]5CCCN5C(=O)[C@@H](NC(=O)OC)C(C)C)[nH]4)cc3C(=O)O)cc2)[nH]1)C(C)C [Example M114, 4,4′-bis(2-((2S)-1-(N-(methoxycarbonyl)-L-valyl)-2-pyrrolidinyl)-1H-imidazol-5-yl)-2-biphenylcarboxylic acid] |  | >A
COC(=O)N[C@@H](C(=O)N1CCC[C@H]1c1ncc(-c2ccc(-c3ccc(-c4cnc([C@@H]5CCCN5C(=O)[C@H](NC(=O)OC)C5CC5)[nH]4)cc3C(=O)O)cc2)[nH]1)C1CC1 [Example M115, 4,4′-bis(2-((2S)-1-((2R)-2-cyclopropyl-2-((methoxycarbonyl)amino)acetyl)-2-pyrrolidinyl)-1H-imidazol-5-yl)-2-biphenylcarboxylic acid] |  | >A
COC(=O)N[C@H](C(=O)N1CCC[C@H]1c1ncc(-c2ccc(-c3ccc(-c4cnc([C@@H]5CCCN5C(=O)[C@@H](NC(=O)OC)C5CC5)[nH]4)cc3C(=O)O)cc2)[nH]1)C1CC1 [Example M116, 4,4′-bis(2-((2S)-1-((2S)-2-cyclopropyl-2-((methoxycarbonyl)amino)acetyl)-2-pyrrolidinyl)-1H-imidazol-5-yl)-2-biphenylcarboxylic acid] |  | >A
COC(=O)N[C@@H](C(=O)N1CCC[C@H]1c1ncc(-c2ccc(-c3ccc(-c4cnc([C@@H]5CCCN5C(=O)[C@H](NC(=O)OC)c5ccccc5)[nH]4)cc3C(=O)O)cc2)[nH]1)c1ccccc1 [Example M117, 4,4′-bis(2-((2S)-1-((2R)-2-((methoxycarbonyl)amino)-2-phenylacetyl)-2-pyrrolidinyl)-1H-imidazol-5-yl)-2-biphenylcarboxylic acid] |  | >A
COC(=O)N[C@H](C(=O)N1CCC[C@H]1c1ncc(-c2ccc(-c3ccc(-c4cnc([C@@H]5CCCN5C(=O)[C@@H](NC(=O)OC)C(C)C)[nH]4)cc3C(N)=O)cc2)[nH]1)C(C)C [Example M118, methyl ((1S)-1-(((2S)-2-(5-(2′-carbamoyl-4′-(2-((2S)-1-((2S)-2-((methoxycarbonyl)amino)-3-methylbutanoyl)-2-pyrrolidinyl)-1H-imidazol-5-yl)-4-biphenylyl)-1H-imidazol-2-yl)-1-pyrrolidinyl)carbonyl)-2-methylpropyl)carbamate] |  | >A
COC(=O)N[C@H](C(=O)N1CCC[C@H]1c1ncc(-c2ccc(-c3ccc(-c4cnc([C@@H]5CCCN5C(=O)[C@@H](NC(=O)OC)C(C)C)[nH]4)cc3CO)cc2)[nH]1)C(C)C [Example M119, methyl ((1S)-1-(((2S)-2-(5-(2-(hydroxymethyl)-4′-(2-((2S)-1-((2S)-2-((methoxycarbonyl)amino)-3-methylbutanoyl)-2-pyrrolidinyl)-1H-imidazol-5-yl)-4-biphenylyl)-1H-imidazol-2-yl)-1-pyrrolidinyl)carbonyl)-2-methylpropyl)carbamate] | 100 to 999 | 
COC(=O)N[C@H](C(=O)N1CCC[C@H]1c1ncc(-c2ccc(-c3ccc(-c4cnc([C@@H]5CCCN5C(=O)[C@@H](NC(=O)OC)C(C)C)[nH]4)cc3CN(C)C)cc2)[nH]1)C(C)C [Example M120] | 100 to 999 | 
COC(=O)N[C@@H](C(=O)N1CCC[C@H]1c1ncc(-c2ccc(-c3ccc(-c4cnc([C@@H]5CCCN5C(=O)[C@H](NC(=O)OC)c5ccccc5)[nH]4)cc3CN(C)C)cc2)[nH]1)c1ccccc1 [Example M121] | 100 to 999 | 
